Literature values in PMC9851200, “Multiparameter phenotypic screening for endogenous TFEB and TFE3 translocation identifies novel chemical series modulating lysosome function” (Autophagy, 2022).

Columns and labels:
Parameters in all cases: method as in original PKIS2 published data
[1] = molecular target: T1, kinases (KINOMEscan panel) (Homo sapiens, UniProt O75747); conditions: Published KINOMEscan; ref original PKIS2 published data; cited from earlier work
T1 sequence (O75747 1-1486): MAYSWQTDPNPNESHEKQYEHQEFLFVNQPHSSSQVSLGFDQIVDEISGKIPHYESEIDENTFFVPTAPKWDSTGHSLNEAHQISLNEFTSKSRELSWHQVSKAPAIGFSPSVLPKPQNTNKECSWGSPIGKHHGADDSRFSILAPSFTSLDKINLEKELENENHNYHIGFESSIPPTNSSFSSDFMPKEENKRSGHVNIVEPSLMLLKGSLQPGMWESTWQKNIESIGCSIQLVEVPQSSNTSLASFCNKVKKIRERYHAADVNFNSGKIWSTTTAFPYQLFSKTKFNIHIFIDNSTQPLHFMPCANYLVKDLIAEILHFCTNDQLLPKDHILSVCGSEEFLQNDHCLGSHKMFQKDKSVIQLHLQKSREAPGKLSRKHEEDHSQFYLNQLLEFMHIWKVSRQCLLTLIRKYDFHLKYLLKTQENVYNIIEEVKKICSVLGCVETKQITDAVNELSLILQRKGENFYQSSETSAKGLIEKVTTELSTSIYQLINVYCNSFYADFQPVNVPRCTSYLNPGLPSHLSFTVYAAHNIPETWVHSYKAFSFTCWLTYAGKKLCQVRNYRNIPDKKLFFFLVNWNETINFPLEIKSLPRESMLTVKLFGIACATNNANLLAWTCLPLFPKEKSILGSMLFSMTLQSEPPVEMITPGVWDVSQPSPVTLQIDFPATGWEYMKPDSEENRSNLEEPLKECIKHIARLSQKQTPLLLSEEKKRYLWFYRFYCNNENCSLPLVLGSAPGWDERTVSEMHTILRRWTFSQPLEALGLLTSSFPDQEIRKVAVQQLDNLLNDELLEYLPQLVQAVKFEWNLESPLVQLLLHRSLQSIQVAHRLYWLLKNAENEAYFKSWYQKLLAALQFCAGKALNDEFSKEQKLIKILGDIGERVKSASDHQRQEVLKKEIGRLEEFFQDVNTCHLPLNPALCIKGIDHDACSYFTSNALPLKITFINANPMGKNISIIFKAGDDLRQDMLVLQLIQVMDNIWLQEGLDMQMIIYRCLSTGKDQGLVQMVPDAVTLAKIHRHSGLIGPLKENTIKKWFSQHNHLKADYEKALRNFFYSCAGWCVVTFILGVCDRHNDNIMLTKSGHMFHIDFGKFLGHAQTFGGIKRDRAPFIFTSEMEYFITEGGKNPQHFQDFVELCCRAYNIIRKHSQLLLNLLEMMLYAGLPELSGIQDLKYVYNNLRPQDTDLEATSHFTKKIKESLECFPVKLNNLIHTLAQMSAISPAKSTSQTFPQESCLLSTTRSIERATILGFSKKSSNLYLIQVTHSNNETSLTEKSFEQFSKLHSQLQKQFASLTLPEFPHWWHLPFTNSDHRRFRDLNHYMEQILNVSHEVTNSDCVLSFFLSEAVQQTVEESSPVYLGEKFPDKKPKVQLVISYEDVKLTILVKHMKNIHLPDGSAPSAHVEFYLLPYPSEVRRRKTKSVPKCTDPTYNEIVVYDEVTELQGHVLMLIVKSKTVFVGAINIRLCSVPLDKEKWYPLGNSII

[2] = molecular target: kinases (KINOMEscan panel) (Homo sapiens, UniProt O95819); conditions: MAP4K4; Published KINOMEscan; ref original PKIS2 published data; cited from earlier work
kinases (KINOMEscan panel) (Homo sapiens, UniProt O95819), sequence (O95819 whole entry): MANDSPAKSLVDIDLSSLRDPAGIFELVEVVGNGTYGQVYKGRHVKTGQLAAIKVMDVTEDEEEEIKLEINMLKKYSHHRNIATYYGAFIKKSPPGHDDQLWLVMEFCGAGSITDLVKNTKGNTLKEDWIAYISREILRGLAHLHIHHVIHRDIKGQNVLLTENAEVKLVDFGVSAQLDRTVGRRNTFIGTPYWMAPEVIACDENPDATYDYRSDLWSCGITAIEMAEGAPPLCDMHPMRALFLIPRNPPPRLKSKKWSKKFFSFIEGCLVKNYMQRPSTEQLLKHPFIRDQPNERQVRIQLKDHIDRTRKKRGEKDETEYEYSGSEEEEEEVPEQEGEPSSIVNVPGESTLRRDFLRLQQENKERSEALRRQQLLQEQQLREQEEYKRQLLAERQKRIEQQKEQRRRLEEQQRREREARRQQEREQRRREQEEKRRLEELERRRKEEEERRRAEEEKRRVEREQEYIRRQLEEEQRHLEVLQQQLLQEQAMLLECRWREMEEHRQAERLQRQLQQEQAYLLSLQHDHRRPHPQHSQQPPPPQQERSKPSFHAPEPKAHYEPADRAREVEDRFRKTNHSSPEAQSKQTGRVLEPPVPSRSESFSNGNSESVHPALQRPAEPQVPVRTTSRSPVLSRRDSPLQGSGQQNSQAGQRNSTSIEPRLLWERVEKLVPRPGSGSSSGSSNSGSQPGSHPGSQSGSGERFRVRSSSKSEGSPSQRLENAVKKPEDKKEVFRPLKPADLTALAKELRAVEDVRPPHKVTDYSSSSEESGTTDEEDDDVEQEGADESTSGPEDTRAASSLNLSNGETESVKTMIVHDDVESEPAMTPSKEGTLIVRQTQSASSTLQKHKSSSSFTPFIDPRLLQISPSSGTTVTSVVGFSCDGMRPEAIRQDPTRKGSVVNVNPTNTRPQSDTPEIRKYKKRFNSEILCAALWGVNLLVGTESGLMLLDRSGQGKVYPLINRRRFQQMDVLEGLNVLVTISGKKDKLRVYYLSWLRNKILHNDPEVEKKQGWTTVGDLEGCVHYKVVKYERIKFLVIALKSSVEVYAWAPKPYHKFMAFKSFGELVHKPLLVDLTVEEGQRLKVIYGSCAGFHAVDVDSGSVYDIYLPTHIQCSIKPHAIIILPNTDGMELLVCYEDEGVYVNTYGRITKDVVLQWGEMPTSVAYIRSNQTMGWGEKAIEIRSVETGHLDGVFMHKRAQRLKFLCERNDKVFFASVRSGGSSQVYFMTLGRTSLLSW

[3] = molecular target: kinases (KINOMEscan panel) (Homo sapiens, UniProt P06213); conditions: kinase INSR; Published KINOMEscan; ref original PKIS2 published data; cited from earlier work
kinases (KINOMEscan panel) (Homo sapiens, UniProt P06213), sequence (P06213 28-1382): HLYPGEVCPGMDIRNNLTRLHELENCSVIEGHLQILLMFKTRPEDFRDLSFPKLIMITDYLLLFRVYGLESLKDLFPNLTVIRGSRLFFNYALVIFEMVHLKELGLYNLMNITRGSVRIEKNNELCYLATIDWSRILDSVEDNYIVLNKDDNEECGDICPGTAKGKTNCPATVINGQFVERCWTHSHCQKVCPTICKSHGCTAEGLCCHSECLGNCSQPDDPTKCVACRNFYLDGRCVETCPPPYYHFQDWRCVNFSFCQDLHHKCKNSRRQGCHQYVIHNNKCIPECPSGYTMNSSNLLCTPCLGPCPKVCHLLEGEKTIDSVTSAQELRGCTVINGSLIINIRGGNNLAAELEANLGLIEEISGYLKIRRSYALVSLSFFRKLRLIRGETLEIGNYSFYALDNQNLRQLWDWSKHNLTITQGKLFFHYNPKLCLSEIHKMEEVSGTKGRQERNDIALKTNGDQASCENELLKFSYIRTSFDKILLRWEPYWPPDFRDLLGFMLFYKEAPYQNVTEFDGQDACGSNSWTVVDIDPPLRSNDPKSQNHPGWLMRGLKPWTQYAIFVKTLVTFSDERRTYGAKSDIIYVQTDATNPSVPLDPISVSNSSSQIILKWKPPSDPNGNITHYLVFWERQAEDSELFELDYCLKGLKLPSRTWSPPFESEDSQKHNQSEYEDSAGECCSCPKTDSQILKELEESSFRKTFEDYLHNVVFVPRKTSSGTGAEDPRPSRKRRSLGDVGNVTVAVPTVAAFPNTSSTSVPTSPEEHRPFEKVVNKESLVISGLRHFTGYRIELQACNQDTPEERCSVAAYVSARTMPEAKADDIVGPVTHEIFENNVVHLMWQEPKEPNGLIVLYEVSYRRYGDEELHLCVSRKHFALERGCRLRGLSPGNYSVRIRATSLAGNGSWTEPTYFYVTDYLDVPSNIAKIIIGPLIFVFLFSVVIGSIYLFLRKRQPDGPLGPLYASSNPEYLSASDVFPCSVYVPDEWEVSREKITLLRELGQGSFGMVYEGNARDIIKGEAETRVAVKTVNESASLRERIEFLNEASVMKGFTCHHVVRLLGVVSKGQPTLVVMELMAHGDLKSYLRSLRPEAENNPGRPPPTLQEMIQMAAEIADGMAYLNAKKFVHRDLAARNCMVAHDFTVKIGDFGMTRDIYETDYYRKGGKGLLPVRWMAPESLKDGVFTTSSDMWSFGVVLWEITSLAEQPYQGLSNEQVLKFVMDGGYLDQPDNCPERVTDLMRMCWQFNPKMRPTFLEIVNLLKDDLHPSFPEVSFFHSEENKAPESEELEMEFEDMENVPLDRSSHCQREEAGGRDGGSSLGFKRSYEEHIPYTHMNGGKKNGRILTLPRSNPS

[4] = molecular target: kinases (KINOMEscan panel) (Homo sapiens, UniProt P16234); conditions: PDGFRA; Published KINOMEscan; ref original PKIS2 published data; cited from earlier work
kinases (KINOMEscan panel) (Homo sapiens, UniProt P16234), sequence (P16234 24-1089): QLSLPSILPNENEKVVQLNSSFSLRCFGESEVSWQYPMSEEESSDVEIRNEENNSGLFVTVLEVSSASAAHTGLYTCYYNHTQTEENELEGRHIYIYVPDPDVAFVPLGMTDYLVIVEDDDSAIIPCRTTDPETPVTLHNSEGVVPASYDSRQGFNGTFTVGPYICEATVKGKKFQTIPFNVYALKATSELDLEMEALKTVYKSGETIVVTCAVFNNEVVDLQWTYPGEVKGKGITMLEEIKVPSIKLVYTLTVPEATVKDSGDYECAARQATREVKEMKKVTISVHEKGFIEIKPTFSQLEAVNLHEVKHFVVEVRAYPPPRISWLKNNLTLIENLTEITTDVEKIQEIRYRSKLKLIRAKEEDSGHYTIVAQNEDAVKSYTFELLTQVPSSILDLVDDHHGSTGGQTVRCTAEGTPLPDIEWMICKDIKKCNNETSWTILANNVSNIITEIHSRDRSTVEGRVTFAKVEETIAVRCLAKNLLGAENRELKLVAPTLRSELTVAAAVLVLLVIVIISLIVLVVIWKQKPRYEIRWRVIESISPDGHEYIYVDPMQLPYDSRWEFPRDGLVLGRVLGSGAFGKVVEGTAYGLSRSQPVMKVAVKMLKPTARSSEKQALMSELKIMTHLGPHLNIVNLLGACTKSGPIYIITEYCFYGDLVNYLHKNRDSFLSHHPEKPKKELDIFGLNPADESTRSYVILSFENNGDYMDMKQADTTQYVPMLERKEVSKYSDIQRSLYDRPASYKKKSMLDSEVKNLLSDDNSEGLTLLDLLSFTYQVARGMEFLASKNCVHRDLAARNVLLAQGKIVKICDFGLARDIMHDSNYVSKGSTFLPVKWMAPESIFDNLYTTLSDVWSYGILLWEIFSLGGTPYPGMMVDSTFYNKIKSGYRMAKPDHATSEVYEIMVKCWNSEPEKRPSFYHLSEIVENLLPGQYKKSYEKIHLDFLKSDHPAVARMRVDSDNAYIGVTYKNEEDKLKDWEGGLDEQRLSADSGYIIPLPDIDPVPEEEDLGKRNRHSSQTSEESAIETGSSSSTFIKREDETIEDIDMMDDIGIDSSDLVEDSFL

[5] = molecular target: T2, kinases (KINOMEscan panel) (Homo sapiens, UniProt P42680); conditions: kinase TEC; Published KINOMEscan; ref original PKIS2 published data; cited from earlier work
T2 sequence (P42680 1-631): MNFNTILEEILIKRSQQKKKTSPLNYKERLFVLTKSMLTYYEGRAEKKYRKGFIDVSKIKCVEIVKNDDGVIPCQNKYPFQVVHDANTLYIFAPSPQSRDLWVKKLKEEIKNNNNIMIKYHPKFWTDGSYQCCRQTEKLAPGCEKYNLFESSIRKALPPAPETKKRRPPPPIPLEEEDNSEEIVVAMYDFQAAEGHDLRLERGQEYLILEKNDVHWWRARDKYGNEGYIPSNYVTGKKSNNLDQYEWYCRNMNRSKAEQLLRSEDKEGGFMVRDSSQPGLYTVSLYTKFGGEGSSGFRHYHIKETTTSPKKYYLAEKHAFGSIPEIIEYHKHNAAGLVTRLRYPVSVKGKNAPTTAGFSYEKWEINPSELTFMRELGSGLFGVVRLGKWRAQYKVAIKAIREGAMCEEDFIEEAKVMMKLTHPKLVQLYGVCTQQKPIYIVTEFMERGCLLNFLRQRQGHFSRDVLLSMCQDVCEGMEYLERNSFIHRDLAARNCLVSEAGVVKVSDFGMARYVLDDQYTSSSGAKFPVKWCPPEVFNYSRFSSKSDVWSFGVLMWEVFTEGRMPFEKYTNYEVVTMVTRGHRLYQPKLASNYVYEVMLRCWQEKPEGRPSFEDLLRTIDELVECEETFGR

[6] = molecular target: kinases (KINOMEscan panel) (Homo sapiens, UniProt P53667); conditions: kinase LIMK1; Published KINOMEscan; ref original PKIS2 published data; cited from earlier work
kinases (KINOMEscan panel) (Homo sapiens, UniProt P53667), sequence (P53667 whole entry): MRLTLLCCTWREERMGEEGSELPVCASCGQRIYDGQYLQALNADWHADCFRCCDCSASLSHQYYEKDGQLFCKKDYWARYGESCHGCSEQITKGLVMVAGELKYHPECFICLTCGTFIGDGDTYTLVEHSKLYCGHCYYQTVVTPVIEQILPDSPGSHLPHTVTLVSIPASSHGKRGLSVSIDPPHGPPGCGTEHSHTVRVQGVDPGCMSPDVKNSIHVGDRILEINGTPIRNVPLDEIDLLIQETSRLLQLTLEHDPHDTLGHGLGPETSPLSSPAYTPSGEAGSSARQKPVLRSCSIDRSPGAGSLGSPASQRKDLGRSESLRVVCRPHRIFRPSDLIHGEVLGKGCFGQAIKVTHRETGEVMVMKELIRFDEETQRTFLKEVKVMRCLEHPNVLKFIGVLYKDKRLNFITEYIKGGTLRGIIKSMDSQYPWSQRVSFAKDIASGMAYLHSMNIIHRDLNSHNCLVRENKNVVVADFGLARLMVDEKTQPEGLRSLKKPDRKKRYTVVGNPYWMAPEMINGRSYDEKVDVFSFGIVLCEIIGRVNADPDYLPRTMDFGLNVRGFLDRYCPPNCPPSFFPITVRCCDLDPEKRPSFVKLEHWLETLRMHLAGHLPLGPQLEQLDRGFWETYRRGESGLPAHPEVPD

[7] = molecular target: kinases (KINOMEscan panel) (Homo sapiens, UniProt Q00537); conditions: kinase CDK17; Published KINOMEscan; ref original PKIS2 published data; cited from earlier work
kinases (KINOMEscan panel) (Homo sapiens, UniProt Q00537), sequence (Q00537 whole entry): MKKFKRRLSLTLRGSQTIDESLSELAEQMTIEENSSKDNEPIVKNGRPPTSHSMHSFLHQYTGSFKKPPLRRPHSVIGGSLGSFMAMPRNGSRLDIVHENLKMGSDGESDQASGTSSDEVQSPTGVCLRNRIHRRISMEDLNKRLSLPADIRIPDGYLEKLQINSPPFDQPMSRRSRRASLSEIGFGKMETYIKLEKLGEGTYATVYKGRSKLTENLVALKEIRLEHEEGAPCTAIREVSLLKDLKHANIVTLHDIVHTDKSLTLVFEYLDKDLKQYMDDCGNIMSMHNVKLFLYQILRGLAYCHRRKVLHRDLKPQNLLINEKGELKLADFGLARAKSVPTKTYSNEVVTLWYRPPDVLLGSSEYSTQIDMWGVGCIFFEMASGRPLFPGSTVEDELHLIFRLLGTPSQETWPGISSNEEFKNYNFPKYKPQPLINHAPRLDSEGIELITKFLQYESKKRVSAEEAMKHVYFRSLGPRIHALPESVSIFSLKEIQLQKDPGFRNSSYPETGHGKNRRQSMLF

[8] = molecular target: kinases (KINOMEscan panel) (Homo sapiens, UniProt Q9HBH9); conditions: MKNK2; Published KINOMEscan; ref original PKIS2 published data; cited from earlier work

Cc1cccc(-c2nc(Nc3ccncc3)c3ccccc3n2)n1 [NK215]
KINOMEscan PIK3C2G [1]: 0 | KINOMEscan MAP4K4 [2]: 0 | KINOMEscan INSR [3]: 7 | KINOMEscan PDGFRA [4]: 0 | KINOMEscan TEC [5]: 10 | KINOMEscan LIMK1 [6]: 12 | KINOMEscan CDK17 [7]: 10 | KINOMEscan MKNK2 [8]: 0
